From patent US20060234390A1, “Process for determining target function and identifying drug leads” (priority 2002, published 2006)
“Also recorded” adds a separate entry of the source.

How the values were obtained:
[1] = target: T1, P38 MAP kinase (Homo sapiens, UniProt Q16539); experiment: HPLC based Chemical Array binding assay (protein-bound vs free compounds, UV and mass spectrum); details: for identity of the compound extracted from the mixture and released from the protein (mass spectrum): 5 uM P38 MAP kinase + 5 uM mixture of Quinine and 86002
T1 construct: purchased Sigma
T1 sequence (Q16539 whole entry): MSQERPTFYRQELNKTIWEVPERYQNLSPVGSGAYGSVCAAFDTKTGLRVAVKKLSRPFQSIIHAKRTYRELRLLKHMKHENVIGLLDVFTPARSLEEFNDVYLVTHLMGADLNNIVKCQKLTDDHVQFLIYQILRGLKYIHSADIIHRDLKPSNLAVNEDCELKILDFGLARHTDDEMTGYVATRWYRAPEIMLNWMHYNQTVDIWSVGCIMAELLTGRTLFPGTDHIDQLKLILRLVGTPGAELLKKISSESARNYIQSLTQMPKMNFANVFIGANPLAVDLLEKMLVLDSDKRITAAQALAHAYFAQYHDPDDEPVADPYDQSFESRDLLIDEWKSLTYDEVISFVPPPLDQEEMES
Method: (§1) Drug-like chemical compounds representing a collection of drug-like chemical scaffolds (Sigma-Aldrich, ICN, Calbiochem) were weighed and mixed to a final concentration of 20 uM each in 50 mM ammonium acetate pH 7, 10% methanol. 1 uM to 20 uM tubulin or P38 MAP kinase (Sigma) were dispensed into HPLC low volume sample cuvettes (Waters) and mixed with 0.5 uM to 20 uM compounds. After mixing and a 15 minute 37° C. incubation, the cuvettes were placed on ice and injected into the HPLC (Waters 2690) using an autoinjector (Waters) onto a 150 mm×2.1 mm ID Pinkerton GFF II column (Regis Technologies) for dual size exclusion and phase separation with a 50 mM ammonium acetate, 10% methanol running buffer.
(§2) We optimized the column dimensions and the choice of resin to maximize the separation of the compounds bound to the protein targets from the unbound compounds. Resins which elute protein in the void volume and small column diameters and lengths which minimize the void volume were used. Such columns minimize the amount of dilution of the protein sample and minimize the time required for each assay, thereby minimizing the amount of bound compound that dissociates from the protein (as governed by the Koff rate). […] A number of HPLC columns, including the Regis 150 mm×2.1 mm GFF II column, a 1.0 mm×100 mm YMC Diol column, a 2.1 mm×150 mm Phenomonex Polyhydroxymethacrylate (Polysep) column, and a Jordi 2.1×150 mm Divinyl Benzene column, were tested. Similarly, other running buffers were tested in which the salt and methanol concentration were varied, and the ratio of protein target to small compounds in the binding reaction was varied from 1000:1 to 1:1000. Resins representative of different classes were tested for their ability to separate the protein fraction from the drug-like small molecule compounds, and to minimize the cycle time for all of the compounds to elute from the column. These characteristics of the columns are determined by surface properties and limitations on flow rates due to resins collapsing under backpressure. […] In applications where a longer cycle time (e.g., over 10 minutes per run) is acceptable, any of the above columns or a series of the above columns may be used.
(§3) For shorter cycle times, other columns may be used.

[2] = tested on: tubulin; experiment: as above; details: tubulin 0, 5 and 20 uM; 10 compound mixture, 0.5 uM each; GFF II column
Method: as §1, §2, §3

[3] = target: T1, P38 MAP kinase; details: stated as a known property of the ligand; cited from earlier work
[4] = P38 0, 2.5, 5 and 10 uM, 86002 and quinine 5 uM each, Diol column

mass spectrum of the collected protein fraction compared with the standard ([1]; 5 uM P38 MAP kinase + 5 uM 86002, Diol column) | reduction of the free compound UV peak with increasing P38 MAP kinase ([1]; P38 0, 3.5 and 5 uM, 10 compound mixture, 0.5 uM each, GFF II column) | level of the characteristic peaks in the mass spectrum of the protein fraction ([1]; P38, 10 compound mixture, 0.5 uM each, GFF II column) | reduction of the free compound UV peak with increasing tubulin [2] | Compound | identity of the compound extracted from the mixture and released from the protein (mass spectrum) [1] | reduction of the free compound UV peak with increasing P38 MAP kinase [1, 4] | level of the characteristic peak in the mass spectrum of the protein fraction ([1]; P38 2 uM, 100 compound mixture, 20 uM each, GFF II column) | affinity for the P38 MAP kinase protein target [3]
corresponded to the 86002 standard | concentration dependent reduction | at a level far higher than other peaks | negligible reduction | Fc1ccc(-c2nc3n(c2-c2ccncc2)CCS3)cc1 [SKB86002] | identified as 86002 | concentration dependant reduction | binds and extracts; also recorded: at a level far higher than other peaks | micromolar affinity
 |  |  |  | C=C[C@H]1CN2CC[C@H]1C[C@H]2[C@H](O)c1ccnc2ccc(OC)cc12.Cl [quinine, quinine monohydrochloride] | not quinine | negligible reduction |  | 
